Measured values from US8865897B2, “Crystal modifications-3-(1H-indol-3-yl)-4- [4-methyl-piperazin-1-yl)-quinazolin-4-yl] -pyrrole-2, 5-D ione” (Novartis AG, priority 2006, dated 2014).
Like-named read-outs stand apart in the source and are kept apart here.

SMILES: CC(=O)O.CN1CCN(c2nc(C3=C(c4c[nH]c5ccccc45)C(=O)NC3=O)c3ccccc3n2)CC1 [Form B, 3-(1.H.-indol-3-yl)-4-[2-(4-methyl-piperazin-1-yl)-quinazolin-4-yl]-pyrrole-2,5-dione acetate]
- Moisture Sorption at 25° (Relative humidity 45 %): 0.4
- Moisture Sorption at 25° (Relative humidity 55 %): 0.5
- Moisture Sorption at 25° (Relative humidity 75 %): 0.6
- Moisture Sorption at 25° (Relative humidity 85 %): 0.7
- Moisture Sorption at 25° (Relative humidity 95 %): 0.6
- XRPD pattern after DVS (after DVS moisture sorption at 25°): no change
- maximum water uptake (at 80% r.h.): 0.7%
